Experimental data from US11214594B2, “Antimicrobial peptide having synergistic antibacterial effect with antibiotics on multidrug resistant bacteria, and use thereof” (priority 2016, dated 2022).
Converted amounts (≈) assume the structure as drawn. Where a SMILES comes first, the peptide text is derived from it.

Experiments:
[1] = tested on: MDRPA 2003; format: cell-based, Pseudomonas aeruginosa
Summary of the method: (§1)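 Peptides were serially diluted twofold in Mueller-Hinton medium and combined 1:1 with bacterial suspensions prepared at 2×10^6 CFU. Readout was the minimal inhibitory concentration, i.e. the lowest concentration with no growth.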

[2] = tested on: MDRPA 2002; format: cell-based, Pseudomonas aeruginosa
Summary of the method: as §1

[3] = tested on: P. aeruginosa; assay: microbe, parasite or virus in culture; format: cell-based, Pseudomonas aeruginosa
Summary of the method: as §1

[4] = tested on: MDRST 8007; assay: Minimal inhibitory concentration (MIC), single agent; format: cell-based, Salmonella typhimurium; conditions: agent alone
Summary of the method: as §1

[5] = tested on: S. aureus; assay: microbe, parasite or virus in culture; format: cell-based, Staphylococcus aureus
Summary of the method: as §1

[6] = tested on: A. baumannii; assay: MIC of antibiotic during combined treatment with antimicrobial peptide; format: cell-based, Acinetobacter baumannii; conditions: for Antibiotic MIC, Erythromycin / Antibiotic MIC, Linezolid / Antibiotic MIC, Vancomycin: A. baumannii
Summary of the method: (§2)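 MIC values for mixed peptide plus antibiotic solutions were measured in MH medium.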

[7] = tested on: E. coli; assay: as above; format: cell-based, Escherichia coli; conditions: for Antibiotic MIC, Erythromycin / Antibiotic MIC, Linezolid / Antibiotic MIC, Vancomycin: E. coli
Summary of the method: as §2

[8] = tested on: MDREC 1229; assay: microbe, parasite or virus in culture; format: cell-based, Escherichia coli
Summary of the method: as §1

[9] = tested on: E. coli; assay: microbe, parasite or virus in culture; format: cell-based, Escherichia coli; conditions: 16 h
Summary of the method: as §1

[10] = tested on: MRSA 3114; format: cell-based, Staphylococcus aureus; conditions: 3114
Summary of the method: as §1

[11] = tested on: MRSA 3126; format: cell-based, Staphylococcus aureus; conditions: 3126
Summary of the method: as §1

[12] = tested on: S. epidermidis; assay: microbe, parasite or virus in culture; format: cell-based, Staphylococcus epidermidis
Summary of the method: as §1

[13] = tested on: MDRAB 12035; assay: MIC of antibiotic during combined treatment with antimicrobial peptide; format: cell-based, Acinetobacter baumannii
Summary of the method: (§3)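 Antibiotic MIC came from antibiotic dilutions added to bacteria (2×10^6 CFU/ml, MH medium) already combined with peptide serially diluted 2:1 from its own MIC. Swapping the roles of the two agents gave the peptide MIC.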

[14] = tested on: B. subtilis; assay: microbe, parasite or virus in culture; format: cell-based, Bacillus subtilis
Summary of the method: as §1

[15] = tested on: MDREC 1229; assay: MIC of antibiotic during combined treatment with antimicrobial peptide; format: cell-based, Escherichia coli
Summary of the method: as §3

[16] = tested on: MDREC 1238; format: cell-based, Escherichia coli
Summary of the method: as §1

[17] = combined with peptide at 1 μg/ml
[18] = combined with peptide at 2 μg/ml
[19] = combined with peptide at 4 μg/ml
[20] = combined with peptide at 6 μg/ml
[21] = combined with peptide at 8 μg/ml
[22] = combined with peptide at 16 μg/ml
[23] = combined with peptide at 32 μg/ml
[24] = combined with peptide at 64 μg/ml
[25] = peptide treatment concentration 1 μg/ml
[26] = peptide treatment concentration 2 μg/ml
[27] = peptide treatment concentration 4 μg/ml
[28] = peptide treatment concentration 6 μg/ml
[29] = peptide treatment concentration 8 μg/ml
[30] = peptide treatment concentration 16 μg/ml
[31] = peptide treatment concentration 32 μg/ml
[32] = peptide treatment concentration 64 μg/ml

CC[C@H](C)[C@H](NC(=O)[C@H](CCCCN)NC(=O)[C@H](Cc1c[nH]c2ccccc12)NC(=O)[C@@H](N)CCCNC(=N)N)C(=O)N[C@@H](Cc1ccccc1)C(=O)N[C@@H](CCCCN)C(=O)N[C@@H](CCCCN)C(=O)N[C@H](C(=O)N1CCC[C@H]1C(=O)N[C@@H](CCCCN)C(=O)N[C@@H](CC(C)C)C(=O)N[C@@H](CC(C)C)C(=O)N[C@@H](Cc1c[nH]cn1)C(=O)N[C@@H](CCC(=O)O)C(=O)N[C@@H](Cc1ccccc1)C(=O)N[C@@H](CCCCN)C(=O)N[C@@H](CCCCN)C(=O)N[C@@H](Cc1ccccc1)C(N)=O)[C@@H](C)CC [PapMA-12, RWK IFK KIP KLL HEF KKF-NH2] (H-RWKIFKKIPKLLHEFKKF-NH2; N-terminus assumed)
Minimal inhibitory concentration MIC [1]: 64 µg/mL (≈ 26.8 µM) | Minimal inhibitory concentration MIC [2]: 64 µg/mL (≈ 26.8 µM) | Minimal inhibitory concentration MIC [3]: 64 µg/mL (≈ 26.8 µM) | Minimal inhibitory concentration MIC [4]: 16 µg/mL (≈ 6.71 µM) | Minimal inhibitory concentration MIC [5]: >128 µg/mL | Synergistic effect of antibacterial activity with existing antibiotics compared with PapMA-1 ([6]; A. baumannii and MDRAB 12035): higher level than the PapMA-1 peptide | Antibiotic MIC, Erythromycin [6, 17]: 16 µg/mL | Antibiotic MIC, Linezolid [6, 17]: 128 µg/mL | Antibiotic MIC, Vancomycin [6, 17]: >128 µg/mL | Antibiotic MIC, Erythromycin [6, 18]: 8 µg/mL | Antibiotic MIC, Linezolid [6, 18]: 32 µg/mL | Antibiotic MIC, Vancomycin [6, 18]: 64 µg/mL | Antibiotic MIC, Erythromycin [6, 19]: 1 µg/mL | Antibiotic MIC, Linezolid [6, 19]: 4 µg/mL | Antibiotic MIC, Vancomycin [6, 19]: 8 µg/mL | Antibiotic MIC, Erythromycin [6, 20]: 0.25 µg/mL | Antibiotic MIC, Linezolid [6, 20]: 1 µg/mL | Antibiotic MIC, Vancomycin [6, 20]: 2 µg/mL | Antibiotic MIC, Erythromycin [6, 21]: 0 µg/mL | Antibiotic MIC, Linezolid [6, 21]: 0 µg/mL | Antibiotic MIC, Vancomycin [6, 21]: 0 µg/mL | Antibiotic MIC, Erythromycin [6, 22]: 0 µg/mL | Antibiotic MIC, Linezolid [6, 22]: 0 µg/mL | Antibiotic MIC, Vancomycin [6, 22]: 0 µg/mL | Antibiotic MIC, Erythromycin [6, 23]: 0 µg/mL | Antibiotic MIC, Linezolid [6, 23]: 0 µg/mL | Antibiotic MIC, Vancomycin [6, 23]: 0 µg/mL | Antibiotic MIC, Erythromycin [6, 24]: 0 µg/mL | Antibiotic MIC, Linezolid [6, 24]: 0 µg/mL | Antibiotic MIC, Vancomycin [6, 24]: 0 µg/mL | Synergistic effect of antibacterial activity with existing antibiotics compared with PapMA-1 ([7]; E. coli and MDREC1229): higher level than the PapMA-1 peptide | Antibiotic MIC, Erythromycin ([7]; erythromycin combined with peptide at 1 μg/ml): 64 µg/mL | Antibiotic MIC, Erythromycin ([7]; erythromycin combined with peptide at 2 μg/ml): 32 µg/mL | Antibiotic MIC, Erythromycin ([7]; erythromycin combined with peptide at 4 μg/ml): 2 µg/mL | Antibiotic MIC, Erythromycin ([7]; erythromycin combined with peptide at 6 μg/ml): 1 µg/mL | Antibiotic MIC, Erythromycin ([7]; erythromycin combined with peptide at 8 μg/ml): 0 µg/mL | Antibiotic MIC, Erythromycin ([7]; erythromycin combined with peptide at 16 μg/ml): 0 µg/mL | Antibiotic MIC, Erythromycin ([7]; erythromycin combined with peptide at 32 μg/ml): 0 µg/mL | Antibiotic MIC, Erythromycin ([7]; erythromycin combined with peptide at 64 μg/ml): 0 µg/mL | Antibiotic MIC, Linezolid ([7]; linezolid combined with peptide at 1 μg/ml): >128 µg/mL | Antibiotic MIC, Linezolid ([7]; linezolid combined with peptide at 2 μg/ml): 128 µg/mL | Antibiotic MIC, Linezolid ([7]; linezolid combined with peptide at 4 μg/ml): 8 µg/mL | Antibiotic MIC, Linezolid ([7]; linezolid combined with peptide at 6 μg/ml): 2 µg/mL | Antibiotic MIC, Linezolid ([7]; linezolid combined with peptide at 8 μg/ml): 0 µg/mL | Antibiotic MIC, Linezolid ([7]; linezolid combined with peptide at 16 μg/ml): 0 µg/mL | Antibiotic MIC, Linezolid ([7]; linezolid combined with peptide at 32 μg/ml): 0 µg/mL | Antibiotic MIC, Linezolid ([7]; linezolid combined with peptide at 64 μg/ml): 0 µg/mL | Antibiotic MIC, Vancomycin ([7]; vancomycin combined with peptide at 1 μg/ml): >128 µg/mL | Antibiotic MIC, Vancomycin ([7]; vancomycin combined with peptide at 2 μg/ml): 128 µg/mL | Antibiotic MIC, Vancomycin ([7]; vancomycin combined with peptide at 4 μg/ml): 16 µg/mL | Antibiotic MIC, Vancomycin ([7]; vancomycin combined with peptide at 6 μg/ml): 8 µg/mL | Antibiotic MIC, Vancomycin ([7]; vancomycin combined with peptide at 8 μg/ml): 0 µg/mL | Antibiotic MIC, Vancomycin ([7]; vancomycin combined with peptide at 16 μg/ml): 0 µg/mL | Antibiotic MIC, Vancomycin ([7]; vancomycin combined with peptide at 32 μg/ml): 0 µg/mL | Antibiotic MIC, Vancomycin ([7]; vancomycin combined with peptide at 64 μg/ml): 0 µg/mL | Minimal inhibitory concentration MIC [8]: 16 µg/mL (≈ 6.71 µM) | Peptide MIC, peptide alone [8]: 16 µg/mL | Minimal inhibitory concentration MIC [9]: 8 µg/mL (≈ 3.35 µM) | Minimal inhibitory concentration MIC [10]: >128 µg/mL | Minimal inhibitory concentration MIC [11]: >128 µg/mL | Minimal inhibitory concentration MIC [12]: >128 µg/mL | Erythromycin MIC during combined treatment with peptide [13, 25]: 16 µg/mL | Linezolid MIC during combined treatment with peptide [13, 25]: 128 µg/mL | Vancomycin MIC during combined treatment with peptide [13, 25]: 128 µg/mL | Erythromycin MIC during combined treatment with peptide [13, 26]: 8 µg/mL | Linezolid MIC during combined treatment with peptide [13, 26]: 64 µg/mL | Vancomycin MIC during combined treatment with peptide [13, 26]: 64 µg/mL | Erythromycin MIC during combined treatment with peptide [13, 27]: 2 µg/mL | Linezolid MIC during combined treatment with peptide [13, 27]: 16 µg/mL | Vancomycin MIC during combined treatment with peptide [13, 27]: 16 µg/mL | Erythromycin MIC during combined treatment with peptide [13, 28]: 1 µg/mL | Linezolid MIC during combined treatment with peptide [13, 28]: 8 µg/mL | Vancomycin MIC during combined treatment with peptide [13, 28]: 4 µg/mL | Erythromycin MIC during combined treatment with peptide [13, 29]: 0 µg/mL | Linezolid MIC during combined treatment with peptide [13, 29]: 0 µg/mL | Vancomycin MIC during combined treatment with peptide [13, 29]: 0 µg/mL | Erythromycin MIC during combined treatment with peptide [13, 30]: 0 µg/mL | Linezolid MIC during combined treatment with peptide [13, 30]: 0 µg/mL | Vancomycin MIC during combined treatment with peptide [13, 30]: 0 µg/mL | Erythromycin MIC during combined treatment with peptide [13, 31]: 0 µg/mL | Linezolid MIC during combined treatment with peptide [13, 31]: 0 µg/mL | Vancomycin MIC during combined treatment with peptide [13, 31]: 0 µg/mL | Erythromycin MIC during combined treatment with peptide [13, 32]: 0 µg/mL | Linezolid MIC during combined treatment with peptide [13, 32]: 0 µg/mL | Vancomycin MIC during combined treatment with peptide [13, 32]: 0 µg/mL | Minimal inhibitory concentration MIC [14]: >128 µg/mL | Antibiotic MIC, Erythromycin [15, 25]: 128 µg/mL | Antibiotic MIC, Linezolid [15, 25]: >128 µg/mL | Antibiotic MIC, Vancomycin [15, 25]: >128 µg/mL | Antibiotic MIC, Erythromycin [15, 26]: 32 µg/mL | Antibiotic MIC, Linezolid [15, 26]: 128 µg/mL | Antibiotic MIC, Vancomycin [15, 26]: >128 µg/mL | Antibiotic MIC, Erythromycin [15, 27]: 8 µg/mL | Antibiotic MIC, Linezolid [15, 27]: 32 µg/mL | Antibiotic MIC, Vancomycin [15, 27]: 128 µg/mL | Antibiotic MIC, Erythromycin [15, 28]: 4 µg/mL | Antibiotic MIC, Linezolid [15, 28]: 16 µg/mL | Antibiotic MIC, Vancomycin [15, 28]: 32 µg/mL | Antibiotic MIC, Erythromycin [15, 29]: 1 µg/mL | Antibiotic MIC, Linezolid [15, 29]: 16 µg/mL | Antibiotic MIC, Vancomycin [15, 29]: 8 µg/mL | Antibiotic MIC, Erythromycin [15, 30]: 0 µg/mL | Antibiotic MIC, Linezolid [15, 30]: 0 µg/mL | Antibiotic MIC, Vancomycin [15, 30]: 0 µg/mL | Antibiotic MIC, Erythromycin [15, 31]: 0 µg/mL | Antibiotic MIC, Linezolid [15, 31]: 0 µg/mL | Antibiotic MIC, Vancomycin [15, 31]: 0 µg/mL | Antibiotic MIC, Erythromycin [15, 32]: 0 µg/mL | Antibiotic MIC, Linezolid [15, 32]: 0 µg/mL | Antibiotic MIC, Vancomycin [15, 32]: 0 µg/mL | Minimal inhibitory concentration MIC [16]: 16 µg/mL (≈ 6.71 µM)
